Test results reported in patent US9255100B2 (BAYER INTELLECTUAL PROPERTY GMBH, priority 2010, dated 2016).

What follows are molecules tested against T1, N-terminally GST-tagged human full length recombinant Mps-1 kinase (Homo sapiens, UniProt P33981) (assay: Mps-1 kinase assay (TR-FRET)). Settings: Mps1 IC50 [nM], 10 μM ATP, 1 μM peptide substrate, 60 min at 22° C.
T1 construct: N-terminally GST-tagged human full length recombinant Mps-1 kinase; purchased Invitrogen, Karslruhe, Germany PV4071
T1 sequence (P33981 1-857): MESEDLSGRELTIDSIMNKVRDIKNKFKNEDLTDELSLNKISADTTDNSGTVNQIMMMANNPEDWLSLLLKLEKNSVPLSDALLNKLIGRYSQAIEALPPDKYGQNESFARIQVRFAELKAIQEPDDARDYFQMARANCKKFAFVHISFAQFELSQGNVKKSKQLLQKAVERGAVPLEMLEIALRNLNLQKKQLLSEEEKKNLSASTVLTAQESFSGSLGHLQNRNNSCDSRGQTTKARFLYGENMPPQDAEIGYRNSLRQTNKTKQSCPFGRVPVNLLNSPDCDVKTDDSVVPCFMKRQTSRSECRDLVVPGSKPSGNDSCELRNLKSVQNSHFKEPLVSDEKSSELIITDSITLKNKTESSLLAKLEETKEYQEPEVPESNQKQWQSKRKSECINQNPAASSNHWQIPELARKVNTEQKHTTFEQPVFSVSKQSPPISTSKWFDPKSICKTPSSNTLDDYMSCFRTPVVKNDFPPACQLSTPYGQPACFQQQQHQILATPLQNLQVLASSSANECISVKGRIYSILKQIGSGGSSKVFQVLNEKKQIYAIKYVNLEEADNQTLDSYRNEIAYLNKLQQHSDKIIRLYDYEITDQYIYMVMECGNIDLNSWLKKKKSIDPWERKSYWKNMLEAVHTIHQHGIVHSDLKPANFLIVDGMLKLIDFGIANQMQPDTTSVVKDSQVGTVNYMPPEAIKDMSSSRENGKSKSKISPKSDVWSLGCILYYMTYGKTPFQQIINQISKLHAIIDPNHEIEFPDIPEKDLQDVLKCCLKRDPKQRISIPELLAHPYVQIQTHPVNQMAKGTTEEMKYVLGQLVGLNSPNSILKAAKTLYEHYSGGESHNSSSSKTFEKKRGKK
Format: biochemical
How it was run: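 GST-Mps-1 (full length, N-term tag) ~1 nM final, linear-range adjusted per lot; biotinylated peptide substrate. Detection: Eu-anti-pSer/Thr donor → SA-XLent acceptor TR-FRET, 1 h, 22° C. Inhibition of kinase activity.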

Row | IC50 [nM] | Structure (SMILES)
1 | 0.2 | Cc1cc(-c2cnc3c(NCCC(F)(F)F)cc(Oc4ccc(F)cc4)nn23)ccc1C(=O)NC1CC1 [Example 472, N-cyclopropyl-4-{6-(4-fluorophenoxy)-8-[(3,3,3-trifluoropropyl)amino]imidazo[1,2-b]pyridazin-3-yl}-2-methyl-benzamide]
2 | 2 | Cc1cc(-c2cnc3c(NCC(O)C(F)(F)F)cc(-c4ccnn4C)nn23)ccc1C(=O)NC1CC1 (racemic) [Example 208, (RS)—N-cyclopropyl-2-methyl-4-{6-(1-methyl-1H-pyrazol-5-yl)-8-[(3,3,3-trifluoro-2-hydroxypropyl)amino]imidazo[1,2-b]pyridazin-3-yl}benzamide]
3 | 0.1 | Cc1cc(-c2cnc3c(NCCC(F)(F)F)cc(Nc4cccc(F)c4F)nn23)ccc1C(=O)NC1CC1 [Example 380, N-cyclopropyl-4-{6-[(2,3-difluorophenyl)amino]-8-[(3,3,3-trifluoropropyl)amino]imidazo[1,2-b]pyridazin-3-yl}-2-methylbenzamide]
4 | 0.1 | Cc1cc(-c2cnc3c(NCC(C)(C)O)cc(Nc4ccccc4O)nn23)ccc1C(=O)NC1CC1 [Example 431, N-cyclopropyl-4-{8-[(2-hydroxy-2-methylpropyl)amino]-6-[(2-hydroxyphenyl)amino]imidazo[1,2-b]pyridazin-3-yl}-2-methylbenzamide]
5 | 3.9 | Cc1cc(-c2cnc3c(NCC(C)(C)O)cc(N4CCCCC4)nn23)ccc1C(=O)NC1CC1 [Example 337, N-cyclopropyl-4-{8-[(2-hydroxy-2-methylpropyl)amino]-6-(piperidin-1-yl)imidazo[1,2-b]pyridazin-3-yl}-2-methyl-benzamide]
6 | 0.1 | CNc1ccccc1Oc1cc(NCCC(F)(F)F)c2ncc(-c3ccc(C(=O)NC4CC4)c(C)c3)n2n1 [Example 389, N-cyclopropyl-2-methyl-4-{6-[2-(methylamino)phenoxy]-8-[(3,3,3-trifluoropropyl)amino]imidazo[1,2-b]pyridazin-3-yl}benzamide]
7 | 0.1 | Cc1cc(-c2cnc3c(NCC(C)(C)O)cc(Oc4ccc(F)c(F)c4)nn23)ccc1C(=O)NC1CC1 [Example 254, N-cyclopropyl-4-{6-(3,4-difluorophenoxy)-8-[(2-hydroxy-2-methylpropyl)amino]imidazo[1,2-b]pyridazin-3-yl}-2-methylbenzamide]
8 | 0.1 | Cc1cc(-c2cnc3c(NCC(O)CO)cc(Oc4cccc(F)c4)nn23)ccc1C(=O)NC1CC1 (centres unmarked) [Example 491, N-cyclopropyl-4-{8-[(2,3-dihydroxypropyl)amino]-6-(3-fluorophenoxy)imidazo [1,2-b]pyridazin-3-yl}-2-methylbenzamide]
9 | 0.2 | Cc1cc(-c2cnc3c(NCCC(F)(F)F)cc(Nc4ccc(F)c(F)c4)nn23)ccc1C(=O)NC1CC1 [Example 373, N-cyclopropyl-4-{6-[(3,4-difluorophenyl)amino]-8-[(3,3,3-trifluoropropyl)amino]imidazo[1,2-b]pyridazin-3-yl}-2-methylbenzamide]
10 | 0.6 | Cc1cc(-c2cnc3c(NCC4CCN(C)CC4)cc(Oc4cccnc4)nn23)ccc1C(=O)NC1CC1 [Example 527, N-cyclopropyl-2-methyl-4-[8-{[(1-methylpiperidin-4-yl)methyl]amino}-6-(pyridin-3-yloxy)imidazo [1,2-b]pyridazin-3-yl]benzamide]
11 | 8.9 | Cc1cccc(-c2cc(NCC(C)C)c3ncc(-c4ccc(C(=O)NC5CC5)cc4)n3n2)c1C [Example 106, N-cyclopropyl-4-{6-(2,3-dimethylphenyl)-8-[(2-methylpropyl)amino]imidazo[1,2-b]pyridazin-3-yl}benzamide]
12 | 1 | COc1cccc(Nc2cc(NCC(C)(C)O)c3ncc(-c4ccc(C(=O)NC5CC5)c(C)c4)n3n2)c1 [Example 403, N-cyclopropyl-4-{8-[(2-hydroxy-2-methylpropyl)amino]-6-[(3-methoxyphenyl)amino]imidazo[1,2-b]pyridazin-3-yl}-2-methylbenzamide]
13 | 0.2 | COc1cccc(Nc2cc(NCCC(F)(F)F)c3ncc(-c4ccc(C(=O)NC5CC5)c(C)c4)n3n2)c1C [Example 426, N-cyclopropyl-4-{6-[(3-methoxy-2-methylphenyl)amino]-8-[(3,3,3-trifluoropropyl)amino]imidazo[1,2-b]pyridazin-3-yl}-2-methylbenzamide]
14 | 0.3 | Cc1cc(-c2cnc3c(NCCC(F)(F)F)cc(Sc4ccccc4)nn23)ccc1C(=S)NC1CC1 [Example 84, N-cyclopropyl-2-methyl-4-{6-(phenylsulfanyl)-8-[(3,3,3-trifluoropropyl)amino]imidazo[1,2-b]pyridazin-3-yl}benzenecarbothioamide]
15 | 0.8 | Cc1cc(-c2cnc3c(NCCC(F)(F)F)cc([S+]([O-])c4cccc(F)c4)nn23)ccc1C(=O)NC1CC1 (racemic) [Example 83B, (RS)—N-cyclopropyl-4-{6-[(3-fluorophenyl)sulfinyl]-8-[(3,3,3-trifluoropropyl)amino]imidazo[1,2-b]pyridazin-3-yl}-2-methylbenzamide]
16 | 8.2 | Cc1cc(Oc2cc(NCC(C)(C)O)c3ncc(-c4ccc(C(=O)NC5CC5)c(C)c4)n3n2)n[nH]1 [Example 415, N-cyclopropyl-4-{8-[(2-hydroxy-2-methylpropyl)amino]-6-[(5-methyl-1H-pyrazol-3-yl)oxy]imidazo[1,2-b]pyridazin-3-yl}-2-methylbenzamide]
17 | 2.3 | Cc1cc(-c2cnc3c(NCCN(C)C)cc(Oc4cccnc4)nn23)ccc1C(=O)NC1CC1 [Example 524, N-cyclopropyl-4-[8-{[2-(dimethylamino)ethyl]amino}-6-(pyridin-3-yloxy)imidazo [1,2-b]pyridazin-3-yl]-2-methylbenzamide]
18 | 0.1 | Cc1cc(-c2cnc3c(NCc4ccn(C)n4)cc(Oc4cccc(F)c4)nn23)ccc1C(=O)NC1CC1 [Example 488, N-cyclopropyl-4-[6-(3-fluoro-phenoxy)-8-{[(1-methyl-1H-pyrazol-3-yl)methyl]amino}imidazo[1,2-b]pyridazin-3-yl]-2-methylbenzamide]
19 | 1.1 | CCNC(=O)c1ccc(-c2cnc3c(NCC4CCOCC4)cc(Oc4ccccc4C)nn23)cc1C [Example 596, N-ethyl-2-methyl-4-{6-(2-methylphenoxy)-8-[(tetrahydro-2H-pyran-4-ylmethyl)a-mino]imidazo[1,2-b]pyridazin-3-yl}benzamide]
20 | 7 | CC(C)CNc1cc(-c2cnc3ccccc3c2)nn2c(-c3ccc(C(=O)NC4CC4)cc3)cnc12 [Example 108, N-cyclopropyl-4-{8-[(2-methylpropyl)amino]-6-(quinolin-3-yl)imidazo[1,2-b]pyridazin-3-yl} benzamide]
21 | 4.8 | Cc1cc(-c2cnc3c(NCCC(F)(F)F)cc(Oc4cccc5c4NCCC5)nn23)ccc1C(=O)NC1CC1 [Example 466, N-cyclopropyl-2-methyl-4-{6-(1,2,3,4-tetrahydro-quinolin-8-yloxy)-8-[(3,3,3-trifluoropropyl)amino]imidazo[1,2-b]pyridazin-3-yl} benzamide]
22 | 0.1 | CNC(=O)c1ccc(-c2cnc3c(NCCC(F)(F)F)cc(Oc4ccc(O)cc4F)nn23)cc1C [Example 560, 4-{6-(2-fluoro-4-hydroxyphenoxy)-8-[(3,3,3-trifluoropropyl)amino]imidazo[1,2-b]pyridazin-3-yl}-N,2-dimethylbenzamide]
23 | 0.6 | Cc1cc(-c2cnc3c(NCC4CCSCC4)cc(Oc4ccc(Cl)c(F)c4)nn23)ccc1C(=O)NC1CC1 [Example 291, 4-{6-(4-chloro-3-fluorophenoxy)-8-[(tetrahydro-2H-thiopyran-4-ylmethyl)amino]imidazo[1,2-b]pyridazin-3-yl}-N-cyclopropyl-2-methylbenzamide]
24 | 0.3 | Cc1ccc(F)cc1Sc1cc(NCCC(F)(F)F)c2ncc(-c3ccc(C(=O)NC4CC4)c(C)c3)n2n1 [Example 269, N-cyclopropyl-4-{6-[(5-fluoro-2-methylphenyl)sulfanyl]-8-[(3,3,3-trifluoropropyl)amino]imidazo[1,2-b]pyridazin-3-yl}-2-methylbenzamide]
25 | 1.1 | Cc1cc(-c2cnc3c(NC[C@@H]4CCCO4)cc(-c4ccncc4)nn23)ccc1C(=O)NC1CC1 [Example 31, N-cyclopropyl-2-methyl-4-[6-(pyridin-4-yl)-8-{[(2S)-tetrahydrofuran-2-ylmethyl]amino}imidazo[1,2-b]pyridazin-3-yl]benzamide]
26 | 0.1 | Cc1cc(-c2cnc3c(NCCC(F)(F)F)cc(Nc4ccc(F)cc4)nn23)ccc1C(=O)NC1CC1 [Example 358, N-cyclopropyl-4-{6-[(4-fluorophenyl)amino]-8-[(3,3,3-trifluoropropyl)amino]imidazo[1,2-b]pyridazin-3-yl}-2-methylbenzamide]
